From patent US20260021120A1, “METHOD FOR TREATING INFLAMMATORY SKIN DISEASE USING 6-DIAZO-5-OXO-L-NORLEUCINE” (Dermato Bio Inc., priority 2019, published 2026)
“Also recorded” adds a separate entry of the source.

How the values were obtained:
[1] = system: NFκB; test: TNF-α-induced NFκB activation (luciferase activity) in fibroblasts (NIH3T3/NFκB-luc cells); type: cell-based; conditions: 25 ng/ml TNF-α co-treated 8 hours, 100 μM DON, 5 μM Bay11-7082, vs TNF-α only-treated group
Method: (§1) This example was intended to indirectly confirm the inhibition of chemokine secretion and histone acetylation by confirming the activity of NFκB in skin cells with a dermatitis lesion, and confirming whether the accelerated NFκB activity was inhibited.
(§2) NIH3T3/NFκB-luc cells, which is a cell line capable of confirming the activity of an NFκB transcription factor through luciferase activity were treated with 25 ng/ml of TNF-α to activate an NFκB signal, and as a positive control, 5 μM of a TNF-α inhibitor, Bay11-7082 (Bay), causing an NF-κB signaling inhibitory action was used. NIH3T3/NFκB-luc cells were dispensed at […] in a 96-well plate, and stabilized in an incubator for 24 hours. To confirm the DON efficacy on NFκB, TNF-α and 100 μM DON were co-treated for 8 hours and then lysed, thereby obtaining a cell enzyme solution, and then the cell enzyme solution was reacted with luciferin, and luciferase activity was measured using a luminometer (FIGS. 3 and 4). The difference in the number of cells between treatment groups was corrected with the resulting values of luciferase activity using protein quantification.

[2] = system: NFκB; test: TNF-α-induced NFκB activation (luciferase activity) in keratinocytes; type: cell-based; conditions: 25 ng/ml TNF-α co-treated 8 hours, 100 μM DON, 5 μM Bay11-7082, vs TNF-α only-treated group
Method: as §1, §2

[3] = system: TPA-induced inflammation; test: TPA-induced inflammation inhibiting experiment (mouse ear); type: in vivo, C57BL/6 female mice; conditions: for visual skin condition of the ear area: after 5 days of application, compared to a negative control (FIG. 6); for number of mast cells / penetration of mast cells into lesion: toluidine blue staining, 200× image, DEX 3 mg, CRI 0.6 mg, DON 0.1 mg on ears, vs TPA positive control
Method: For an experiment of inducing and inhibiting inflammation using 12-O-tetradecanoylphorbol-13-acetate (TPA, Sigma), 14 week-old C57BL/6 female mice were purchased from NARA Biotech (Korea) and used. The purchased mice were acclimated for 7 days, and healthy animals were selected and tested. During the experimental period, the mice were raised while maintaining the environment at a temperature of 21 to 25° C., a relative humidity of 45 to 65% and a lighting time of 12 hours, and freely fed feed and drinking water.
First, the acclimated mice with similar characteristics such as a body weight and size were divided into five experimental groups of 3, and separately raised to confirm an anti-inflammation level. Inflammation was induced by first applying 1.0 ug of TPA to each of both ears of a mouse, and after 1 hour, a therapeutic material was applied, which was continued for 5 days. A mouse to which only acetone (Merck), which is a TPA solvent, was applied was set as a negative control (Vehicle), a mouse to which 1.0 ug of TPA dissolved in acetone was applied was set as a positive control and evaluated, and after TPA was applied, mice to which each of 3 mg of dexamethasone (DEX, Sigma), 0.6 mg of crisaborole (CRI, ChemScene) and 0.1 mg of 6-diazo-5-oxo-L-norleucine (DON, Sigma) was applied were set as experimental groups. After applying each material for 5 days by the above-described method, the weight, ear thickness and ear weight of each mouse were measured, and ear tissue was collected and histologically analyzed by hematoxylin & eosin (H&E) staining and toluidine blue staining.
FIG. 8 is a graph obtained by scoring visually evaluated ear lesions, divided into erythema, scaling and a thickness, and in the graph, the severity of symptoms was rated on a 5-point scale (0=none; 1=slight; 2=moderate; 3=marked; and 4=very marked).
Afterward, to confirm the anti-inflammatory effect of DON, the mouse's ear thickness and ear weight were measured and quantified (FIGS. 9A and 9B), and, based on the histological analysis result obtained by toluidine blue staining capable of confirming mast cells, the number of mast cells was measured by comparing three tissue samples per group using a 200× image (FIG. 9C). […] Therefore, it was confirmed that DON can alleviate pruritus symptoms by inhibiting the histamine secretion not only from epithelial cells but also from mast cells, and can also prevent severe dermatitis caused by secondary infection.

[4] = system: oxazolone-induced atopic dermatitis; test: Oxazolone-induced atopic dermatitis inhibiting experiment (mouse ear); type: in vivo, female BALB/c mice
Method: Using five 8-week-old female BALB/c mice per group, an effect of inhibiting oxazolone-induced atopic dermatitis was tested. In the experiment, dermatitis induced on the car of each mouse was treated with a therapeutic candidate, and it was attempted to confirm an effect depending on an administration route of a therapeutic agent through percutaneous application or subcutaneous injection. First, to induce atopic dermatitis in all groups excluding the negative control, 0.35 mg of 4-ethoxymethylene-2-phenyl-2-oxazolin-5-one (oxazolone, OXA) was mixed with 30 μl of acetone, and sensitization was preceded on each of the both ears with the 1% mixture. The same amount of a solvent without OXA was applied for the negative control (vehicle). From 7 days after the initial application of OXA, OXA (0.5%) was additionally applied every two days to induce dermatitis. For treatment groups, dexamethasone (DEX), tacrolimus (TAC), cyclosporine (CYCL), crisaborole (CRI) and DON were used. For percutaneous application, each time OXA was applied, after 1 hour, each of the therapeutic candidates was treated on both ears, and in the administration test via subcutaneous injection, injection was performed 1 hour after OXA treatment, but intermittently performed every two days. As an excipient used in the subcutaneous injection, filtered distilled water was used, and the control was also administered the same amount of sterile water. Finally, on day 22 after the initial OXA application, the experiment was terminated, and the mice were sacrificed and autopsied, ear tissue was collected, and to confirm the morphological structure of the tissue, H&E staining was performed, and to count the number of the infiltrated mast cells, toluidine blue staining was performed.
FIGS. 14A and 14B were obtained by quantifying the total number of cells and the number of mast cells, which are infiltrated into the dermis, from the staining results. (a) The cell numbers were compared using the total number of infiltrated cells in 200 square micrometers (μm^2), and (b) the mast cells infiltrated into the same area were converted into percentage (%) with respect to the total cell number.

[5] = system: IMQ-induced psoriasis; test: IMQ-induced psoriasis inhibiting experiment (mouse back); type: in vivo, female C57/BL6 mice; conditions: 0.05% DON, 100 μl on back
Method: For a psoriasis inhibition experiment using imiquimod (IMQ, Tokyo Chemical Industry, 10747-100 mg), as an experimental animal, female C57/BL6 mice (n=5) were used. First, to induce psoriasis, sensitization was preceded by evenly applying 4 mg IMQ to the completely shaved back of each of the mice in all groups except a negative control at a volume of 100 μl. For the negative control, the same amount of a solvent without IMQ was applied. Psoriasis was induced by applying IMQ a total of five times at 24-hour intervals for 5 days, and for treatment groups, the same site was treated (applied) with 0.05% dexamethasone (DEX) ([…], 100 μl) or 0.05% DON (0.5 mg/ml, 100 μl) dissolved in ethanol one hour after IMQ treatment.
The severity of scaling (FIG. 20) visually evaluated at a lesion site was classified and evaluated by rating, and the severity of the symptom was rated on a 5-point scale (0=none; 1=slight; 2=moderate; 3=marked; and 4=very marked), and plotted on a graph.

[6] = ear lesion, DON 0.1 mg, 5 days (FIG. 8)

Cc1ccc(S(=O)(=O)/C=C/C#N)cc1 [Bay11-7082, reference compound]
NFκB activity by TNF-α (luciferase activity) [1]: decreased
NFκB activity by TNF-α (luciferase activity) [2]: decreased

N#Cc1ccc(Oc2ccc3c(c2)COB3O)cc1 [CRI, crisaborole, reference compound]
visual skin condition of the ear area [3]: showed erythema and scaling
number of mast cells / penetration of mast cells into lesion ([3]; after 5 days): significantly decreased

[N-]=[N+]=CC(=O)CC[C@H](N)C(=O)O [DON, 6-diazo-5-oxo-L-norleucine]
weight (g) of ear tissue ([4]; 0.1% (0.0272 mg), ear, percutaneous application (FIG. 12A)): significantly decreased
thickness (mm) of ear tissue ([4]; 0.1% (0.0272 mg), ear, percutaneous application (FIG. 12B)): significantly decreased
visual symptoms of atopic dermatitis (tissue swelling, eczema, deformation of the ear tissue) ([4]; 0.1% (0.0272 mg), ear, percutaneous application, vs OXA group (FIG. 11)): significant skin improvement
number of immune cells introduced into the dermis ([4]; histological analysis, total infiltrated cells in 200 μm^2): significantly reduces; also recorded: small
thickness of the epithelium ([4]; oxazolone-induced inflammation, inflammatory lesion treated with DON (FIG. 2)): significantly reduced
number of mast cells / penetration of mast cells into lesion ([4]; toluidine blue staining, dermis of ear, day 22): significantly reduces; also recorded: weakened
changes in the epithelium of skin ([4]; visual and histological analysis): significantly reduces
skin thickness at the lesion ([5]; 5 days (FIG. 21)): significantly reduced
severity of scaling (visual score, 5-point scale) ([5]; 5 days, vs IMQ positive control (FIG. 20)): significantly decreased
thickened skin tissue of the epidermis and dermis (histological analysis) ([3]; H&E, after 5 days, DON 0.1 mg on ears (FIG. 7)): becomes thinner
thickness of the epithelium ([3]; TPA-induced inflammation, inflammatory lesion treated with DON (FIG. 1)): significantly reduced
visual skin condition of the ear area [3]: showed erythema and scaling
degree of erythema (visual score, 5-point scale) [3, 6]: significantly reduced
degree of scaling (visual score, 5-point scale) [3, 6]: significantly reduced
degree of thickness (visual score, 5-point scale) [3, 6]: significantly reduced
number of mast cells / penetration of mast cells into lesion ([3]; after 5 days): significantly decreased; also recorded: weakened
NFκB activity by TNF-α (luciferase activity) [1]: reduced; also recorded: inhibited
NFκB activity by TNF-α (luciferase activity) [2]: reduced; also recorded: inhibited
